Data on 43 compounds can be found in patent US20230348426A1, “OXOPYRROLIDINE FPR2 AGONISTS” (Bristol-Myers Squibb Company, priority 2020, published 2023).

The target in test [1] is human FPR2 (Homo sapiens (Human), UniProt P25090). The test can be described thus: FPR2 cyclic adenosine monophosphate (cAMP) assay. In kind it is cell-based. As to conditions: CHO cells overexpressing human FPR2; forskolin 5 µM; inhibition of cAMP production; read-out: hFPR2 cAMP2 EC50. The gist of the method:
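CHO cells overexpressing human FPR2 (2,000/well) incubated 30 min at room temperature with compound (0.020 nM–100 µM, 1% DMSO), 5 µM forskolin and 200 µM IBMX.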
Background: Changes in cAMP serve as a functional read-out for many G protein-coupled receptors.

Test [2] has as its target human FPR1 (Homo sapiens (Human), UniProt P21462). As to the kind of experiment: FPR1 cyclic adenosine monophosphate (cAMP) assay. In kind it is cell-based. As to conditions: CHO cells overexpressing human FPR1; forskolin 10 µM; inhibition of cAMP production; read-out: hFPR1 cAMP EC50. The method, boiled down: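 CHO cells overexpressing human FPR1 (4,000 cells/well) stimulated with 10 µM forskolin plus 200 µM IBMX in the presence of compound (0.020 nM–100 µM, 1% DMSO), 30 min at room temperature. Intracellular cAMP measured by HTRF. Inhibition of cAMP production fitted to a 4-parameter logistic equation.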

Sequence of human FPR1 (P21462 whole entry): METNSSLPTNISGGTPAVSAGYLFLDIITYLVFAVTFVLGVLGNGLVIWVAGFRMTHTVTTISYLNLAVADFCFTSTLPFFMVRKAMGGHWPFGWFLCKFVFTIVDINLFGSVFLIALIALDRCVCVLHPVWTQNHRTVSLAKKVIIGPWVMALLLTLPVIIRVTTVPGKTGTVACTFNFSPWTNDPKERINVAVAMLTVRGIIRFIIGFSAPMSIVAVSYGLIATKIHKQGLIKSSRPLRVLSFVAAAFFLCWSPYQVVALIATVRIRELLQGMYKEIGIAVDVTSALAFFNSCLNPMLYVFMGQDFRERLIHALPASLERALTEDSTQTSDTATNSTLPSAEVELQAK
Sequence of human FPR2 (P25090 whole entry): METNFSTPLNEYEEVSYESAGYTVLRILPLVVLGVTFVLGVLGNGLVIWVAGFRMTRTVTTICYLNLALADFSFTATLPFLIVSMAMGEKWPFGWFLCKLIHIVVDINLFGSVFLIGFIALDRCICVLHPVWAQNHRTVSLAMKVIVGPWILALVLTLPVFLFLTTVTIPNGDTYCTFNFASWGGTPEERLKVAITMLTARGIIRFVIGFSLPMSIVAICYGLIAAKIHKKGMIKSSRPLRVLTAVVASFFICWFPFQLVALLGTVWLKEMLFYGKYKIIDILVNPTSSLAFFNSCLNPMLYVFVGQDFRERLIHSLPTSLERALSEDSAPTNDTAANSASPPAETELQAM

Turning to `COc1cc(F)c([C@@H]2CN(c3ccn(CC(F)F)n3)C(=O)[C@H]2NC(=O)c2ccc(OC(F)F)cc2)c(F)c1` [Example 661], the half-maximal effective concentration (EC50) (in general, the concentration needed to bring the measured effect to its halfway point) in test [1] was determined as 1.2 nM; in test [2], 110 nM.

In the case of `COc1cc(F)c([C@@H]2CN(c3ccn(CC(F)F)n3)C(=O)[C@H]2NC(=O)c2ccc(OC(F)(F)F)cc2)c(F)c1` [Example 662], the EC50 in test [1] stood at 4 nM; in test [2] it was 14 nM.

On to `CCn1cc2c(c(N3C[C@@H](c4c(F)cc(OC)cc4F)[C@H](NC(=O)c4ccc(OC(F)F)cc4)C3=O)c1=O)CCCC2` [Example 663], for which the EC50 came to 1.1 nM in test [1] and 1700 nM in test [2].

As for `CCn1cc2c(c(N3C[C@@H](c4c(F)cc(OC)cc4F)[C@@H](NC(=O)c4ccc(OC(F)F)cc4)C3=O)c1=O)CCCC2` [Example 664], the EC50 turned out to be 8.7 nM in test [1] and 190 nM in test [2].

`COc1cc(F)c([C@@H]2CN(c3c(C)ccn(CC4CNC(=O)O4)c3=O)C(=O)[C@H]2NC(=O)c2ccc(OC(F)F)cc2)c(F)c1` (some centres unmarked) [Example 665]: the EC50 in test [1] is less than 10 nM; in test [2] it was 7.4 nM.

On to `COc1cc(F)c([C@@H]2CN(c3ccc4n(c3=O)CCOC4=O)C(=O)[C@H]2NC(=O)c2ccc(OC(F)(F)F)cc2)c(F)c1` [Example 667], for which the EC50 in test [1] worked out at 63 nM; in test [2], 7.7 nM.

Take `COc1cc(F)c([C@@H]2CN(c3ccc4n(c3=O)CCOC4=O)C(=O)[C@H]2NC(=O)c2ccc(OC(F)F)cc2)c(F)c1` [Example 668]: the figures for the EC50 in test [1] and in test [2] were 8.8 nM and 210 nM, respectively.

As to `COc1cc(F)c([C@@H]2CN(c3cccn(CC(O)CO)c3=O)C(=O)[C@H]2NC(=O)c2ccc(OC(F)(F)F)cc2)c(F)c1` (some centres unmarked) [Example 669], the values for the EC50 in test [1] and in test [2] were 11 nM and 270 nM, respectively.

For the compound `COc1ccc([C@@H]2CN(c3ccnn(CCC(F)(F)F)c3=O)C(=O)[C@H]2NC(=O)c2ccc(OC(F)F)cc2)cc1` [Example 672], the figures for the EC50 in test [1] and in test [2] were 7.9 nM and 5 nM, respectively.

Turning to `CCn1nccc(N2C[C@@H](c3ccc(OC)cc3)[C@H](NC(=O)c3ccc(OC(F)F)cc3)C2=O)c1=O` [Example 674], the EC50 in test [1] is 6.8 nM; in test [2] it was 23 nM.

On to `CCn1nccc(N2C[C@@H](c3ccc(OC)cc3)[C@H](NC(=O)c3ccc(OC(F)(F)F)cc3)C2=O)c1=O` [Example 675], for which the EC50 was 5.5 nM in test [1] and 5 nM in test [2].

For the compound `COc1cc(F)c([C@@H]2CN(c3nccc(OCC(C)(C)O)c3C(F)(F)F)C(=O)[C@H]2NC(=O)c2ccc(Cl)cc2)c(F)c1` [Example 676], the EC50 in test [1] was determined as 13 nM; in test [2], 295 nM.

Take `COc1cc(F)c([C@@H]2CN(c3cccn(CC(O)CO)c3=O)C(=O)[C@H]2NC(=O)c2ccc(Cl)cc2)c(F)c1` (some centres unmarked) [Example 677]: the EC50 in test [1] worked out at 5.3 nM; in test [2] it was 230 nM.

`COc1cc(F)c([C@@H]2CN(c3cccn(CC(O)CO)c3=O)C(=O)[C@H]2NC(=O)c2ccc(OC(F)F)cc2)c(F)c1` (some centres unmarked) [Example 678]: the 50% effective concentration (EC50) turned out to be 11 nM in test [1] and 92 nM in test [2].

With `COc1cc(F)c([C@@H]2CN(c3cccn(CC(O)CO)c3=O)C(=O)[C@H]2NC(=O)c2ccc(OC(F)(F)F)cc2)c(F)c1` (some centres unmarked) [Example 679], the EC50 came to 6 nM in test [1] and 28 nM in test [2].

With `COc1cc(F)c([C@@H]2CN(c3cccn(CC(O)CO)c3=O)C(=O)[C@H]2NC(=O)c2ccc(Cl)cc2)c(F)c1` (some centres unmarked) [Example 680], the EC50 in test [1] was 2.8 nM; in test [2], 780 nM.

For `COc1cc(F)c([C@@H]2CN(c3cccn(CC(O)CO)c3=O)C(=O)[C@H]2NC(=O)c2ccc(OC(F)F)cc2)c(F)c1` (some centres unmarked) [Example 681], the EC50 in test [1] worked out at 10 nM; in test [2], 1000 nM.

With `COc1cc(F)c([C@@H]2CN(c3c(C)ccn(CC(O)C4CC4)c3=O)C(=O)[C@H]2NC(=O)c2ccc(OC(F)F)cc2)c(F)c1` (some centres unmarked) [Example 682], the EC50 was 15 nM in test [1] and 1 nM in test [2].

For `COc1cc(F)c([C@@H]2CN(c3c(C)ccn(CC(O)C4CC4)c3=O)C(=O)[C@H]2NC(=O)c2ccc(OC(F)F)cc2)c(F)c1` (some centres unmarked) [Example 685], the EC50 in test [1] was 14 nM; in test [2], 1.4 nM.

In the case of `COc1ccc([C@@H]2CN(c3c(C)ccn(C4CCC4)c3=O)C(=O)[C@H]2NC(=O)c2ccc(OC(F)(F)F)cc2)cc1` [Example 687], the EC50 in test [1] amounted to 1.8 nM; in test [2], 0.28 nM.

Take `COc1ccc([C@@H]2CN(c3c(C)ccn(C4CCC4)c3=O)C(=O)[C@H]2NC(=O)c2ccc(OC(F)(F)F)cc2)c(F)c1` [Example 688]: the EC50 was 12 nM in test [1] and 1.5 nM in test [2].

`COc1ccc([C@@H]2CN(c3c(C)ccn(C4CCC4)c3=O)C(=O)[C@H]2NC(=O)c2ccc(OC(F)F)cc2)c(F)c1` [Example 689]: the values for the EC50 in test [1] and in test [2] were 4.5 nM and 1.5 nM, respectively.

For the compound `COc1ccc([C@@H]2CN(c3ccnn(CC(F)F)c3=O)C(=O)[C@H]2NC(=O)c2ccc(Cl)cc2)cc1` [Example 690], the EC50 in test [1] is 11 nM; in test [2], 24 nM.

As to `COc1ccc([C@@H]2CN(c3ccnn(CC(F)F)c3=O)C(=O)[C@H]2NC(=O)c2ccc(OC(F)F)cc2)cc1` [Example 691], the EC50 in test [1] and in test [2] was 11 nM each time.

Turning to `COc1ccc([C@@H]2CN(c3ccnn(CC(F)F)c3=O)C(=O)[C@H]2NC(=O)c2ccc(OC(F)(F)F)cc2)cc1` [Example 692], the EC50 in test [1] was determined as 3.8 nM; in test [2], 2.8 nM.

`COc1cc(F)c([C@@H]2CN(c3c(C)ccn(CC4CCOC4)c3=O)C(=O)[C@H]2NC(=O)c2ccc(OC(F)F)cc2)c(F)c1` (some centres unmarked) [Example 693]: the EC50 turned out to be 2 nM in test [1] and 2.5 nM in test [2].

On to `COc1cc(F)c([C@@H]2CN(c3c(C)ccn(CC4CCOC4)c3=O)C(=O)[C@H]2NC(=O)c2ccc(OC(F)F)cc2)c(F)c1` (some centres unmarked) [Example 695], for which the values for the EC50 in test [1] and in test [2] were 3.5 nM and 4 nM, respectively.

For `COc1ccc([C@@H]2CN(c3ccnn(CC(F)F)c3=O)C(=O)[C@H]2NC(=O)c2ccc(OC(F)(F)F)cc2)c(F)c1` [Example 696], the EC50 amounted to 7.2 nM in test [1] and 8.3 nM in test [2].

Regarding `COc1cc(F)c([C@@H]2CN(c3c(C)ccn(CC4CCOC4)c3=O)C(=O)[C@H]2NC(=O)c2ccc(OC(F)(F)F)cc2)c(F)c1` (some centres unmarked) [Example 697], the figures for the EC50 in test [1] and in test [2] were 3.6 nM and 6.7 nM, respectively.

For the compound `COc1ccc([C@@H]2CN(c3c(C)ccn(CC4CCOCC4)c3=O)C(=O)[C@H]2NC(=O)c2ccc(OC(F)F)cc2)c(F)c1` [Example 698], the EC50 in test [1] turned out to be 5.7 nM; in test [2], 2.5 nM.

On to `COc1ccc([C@@H]2CN(c3c(C)ccn(CC4CCOCC4)c3=O)C(=O)[C@H]2NC(=O)c2ccc(OC(F)F)cc2)cc1` [Example 699], for which the EC50 in test [1] worked out at 6.6 nM; in test [2], 3 nM.

Take `COc1ccc([C@@H]2CN(c3c(C)ccn(CC4CCOCC4)c3=O)C(=O)[C@H]2NC(=O)c2ccc(OC(F)(F)F)cc2)cc1` [Example 700]: the EC50 in test [1] is 3 nM; in test [2], 0.67 nM.

For the compound `COc1cc(F)c([C@@H]2CN(c3c(C)ccn(C4CCS(=O)(=O)C4)c3=O)C(=O)[C@H]2NC(=O)c2ccc(OC(F)F)cc2)c(F)c1` (some centres unmarked) [Example 701], the 50% effective concentration (EC50) in test [1] worked out at 12 nM; in test [2], 27 nM.

Take `COc1cc(F)c([C@@H]2CN(c3c(C)ccn(C4CCS(=O)(=O)C4)c3=O)C(=O)[C@H]2NC(=O)c2ccc(OC(F)(F)F)cc2)c(F)c1` (some centres unmarked) [Example 702]: the EC50 in test [1] worked out at 8.5 nM; in test [2], 7.5 nM.

In the case of `COc1cc(F)c([C@@H]2CN(c3ccc(C(=O)O)n(CCO)c3=O)C(=O)[C@H]2NC(=O)c2ccc(OC(F)(F)F)cc2)c(F)c1` [Example 703], the EC50 in test [1] came out at 57 nM; in test [2], 99 nM.

On to `COc1ccc([C@@H]2CN(c3c(C)ccn(C4CCOC4)c3=O)C(=O)[C@H]2NC(=O)c2ccc(OC(F)(F)F)cc2)cc1` (some centres unmarked) [Example 704], for which the values for the concentration giving a half-maximal response (EC50) in test [1] and in test [2] were 2.4 nM and 1 nM, respectively.

As to `COCC(CO)n1cccc(N2C[C@@H](c3ccc(OC)cc3F)[C@H](NC(=O)c3ccc(OC(F)(F)F)cc3)C2=O)c1=O` (some centres unmarked) [Example 705], the EC50 in test [1] was 0.6 nM; in test [2], 3.9 nM.

Regarding `COc1cc(F)c([C@@H]2CN(c3c(C)ccn(C(CO)C(F)(F)F)c3=O)C(=O)[C@H]2NC(=O)c2ccc(OC(F)F)cc2)c(F)c1` (some centres unmarked) [Example 706], the EC50 was 9.4 nM in test [1] and 19 nM in test [2].

As to `COc1cc(F)c([C@@H]2CN(c3c(C)ccn(C(CO)C(F)(F)F)c3=O)C(=O)[C@H]2NC(=O)c2ccc(OC(F)F)cc2)c(F)c1` (some centres unmarked) [Example 707], the EC50 in test [1] came to 5.4 nM; in test [2], 130 nM.

On to `COc1cc(F)c([C@@H]2CN(c3nccc(OC4CCOC4)c3C(F)(F)F)C(=O)[C@H]2NC(=O)c2ccc(Cl)cc2)c(F)c1` (some centres unmarked) [Example 708], for which the results for the EC50 in test [1] and in test [2] were 11 nM and greater than 1000 nM, respectively.

On to `COc1cc(F)c([C@@H]2CN(c3nccc(OC4CCOC4)c3C(F)(F)F)C(=O)[C@H]2NC(=O)c2ccc(Cl)cc2)c(F)c1` (some centres unmarked) [Example 709], for which the EC50 turned out to be 14 nM in test [1] and 210 nM in test [2].

For the compound `COc1cc(F)c([C@@H]2CN(c3cncn(C4CCNC4)c3=O)C(=O)[C@H]2NC(=O)c2ccc(Cl)cc2)c(F)c1` (some centres unmarked) [Example 710], the EC50 in test [1] is 4 nM; in test [2], 490 nM.

Regarding `COc1cc(C2CCN(CCF)CC2)nc(N2C(=O)[C@@H](NC(=O)c3ccc(OC(F)F)cc3)[C@H](c3c(F)cc(OC)cc3F)[C@@H]2C)c1` [Example 711], the EC50 in test [1] amounted to 4.2 nM; in test [2] it was 3400 nM.
